These results are taken from patent publication US9771351B2, “Wnt signaling inhibitor” (KYOWA HAKKO KIRIN CO., LTD., priority 2013, dated 2017).

The structures appear in SMILES notation. Where two headings read alike, the source gives them in different places.

Assay [1] relates to T-cell factor (TCF)-luciferase reporter using Wnt pathway as index. Put plainly: Inhibitory activity against TCF-luciferase reporter using Wnt pathway as index (DLD-1/TCF-Luc cells). The class given is cell-based, human. The note with it: for inhibition at 1 µM: Homo sapiens, read-out: Inhibition ratio (%) at 1 μmol/L. The protocol: Test Example 1: Inhibitory Activity Against T-Cell Factor (TCF)-Luciferase Reporter Using Wnt Pathway as Index
The inhibitory activity of test compounds against Wnt pathway was evaluated by the following method.
A human colorectal adenocarcinoma cell line DLD-1 (Japanese Collection of Research Bioresources) was cultured in RPMI-1640 medium (Gibco/Life Technologies, Inc.) containing 10% fetal bovine serum (Gibco/Life Technologies, Inc.), 10 mmol/L of a 4-(2-hydroxyethyl)-1-piperazineethanesulfonic acid (HEPES) buffer solution (Gibco/Life Technologies, Inc.), 1 mmol/L of a sodium pyruvate solution (Gibco/Life Technologies, Inc.), 4.5 g/L of a D-(+)-glucose solution (Sigma-Aldrich, Inc.), 100 units/mL penicillin (Gibco/Life Technologies, Inc.) and 100 μg/mL of streptomycin (Gibco/Life Technologies, Inc.) under the conditions of 37° C. and 5% carbon dioxide gas. The DLD-1 cells were seeded in a 10 cm dish, and 20 μg of a luciferase gene plasmid pGL4.27 having a TCF responsive sequence inserted therein was transfected into the cells using 10 μL of Attractene (Qiagen, Inc.) according to the protocol attached to the product. A stably expressing cell line (DLD-1/TCF-Luc) was selected using […] of hygromycin B (Wako Pure Chemical Industries Ltd.). The DLD-1/TCF-Luc cells were detached with trypsin and seeded in a 384-well plate, and a test compound was added at different concentrations. After 18 hours, the luciferase activity was measured using Steady-Glo™ Luciferase Assay System (Promega, Inc.).
The inhibition ratio was obtained according to the following formula 1. The inhibition ratio (%) of the compound of the present invention at 1 μmol/L against the TCF-luciferase reporter using the Wnt pathway as an index is shown in Table 6. [Math. 1] Inhibition ratio (%)=100−{(luciferase activity when test compound was added)−(luciferase activity of blank)}/{(luciferase activity of control)−(luciferase activity of blank)}×100 Formula 1

Another assay has as its target T1, tankyrase-2 (Homo sapiens, UniProt Q9H2K2).
T1 construct: purchased BPS Bioscience, Inc. 80566
T1 sequence (Q9H2K2 1-1166): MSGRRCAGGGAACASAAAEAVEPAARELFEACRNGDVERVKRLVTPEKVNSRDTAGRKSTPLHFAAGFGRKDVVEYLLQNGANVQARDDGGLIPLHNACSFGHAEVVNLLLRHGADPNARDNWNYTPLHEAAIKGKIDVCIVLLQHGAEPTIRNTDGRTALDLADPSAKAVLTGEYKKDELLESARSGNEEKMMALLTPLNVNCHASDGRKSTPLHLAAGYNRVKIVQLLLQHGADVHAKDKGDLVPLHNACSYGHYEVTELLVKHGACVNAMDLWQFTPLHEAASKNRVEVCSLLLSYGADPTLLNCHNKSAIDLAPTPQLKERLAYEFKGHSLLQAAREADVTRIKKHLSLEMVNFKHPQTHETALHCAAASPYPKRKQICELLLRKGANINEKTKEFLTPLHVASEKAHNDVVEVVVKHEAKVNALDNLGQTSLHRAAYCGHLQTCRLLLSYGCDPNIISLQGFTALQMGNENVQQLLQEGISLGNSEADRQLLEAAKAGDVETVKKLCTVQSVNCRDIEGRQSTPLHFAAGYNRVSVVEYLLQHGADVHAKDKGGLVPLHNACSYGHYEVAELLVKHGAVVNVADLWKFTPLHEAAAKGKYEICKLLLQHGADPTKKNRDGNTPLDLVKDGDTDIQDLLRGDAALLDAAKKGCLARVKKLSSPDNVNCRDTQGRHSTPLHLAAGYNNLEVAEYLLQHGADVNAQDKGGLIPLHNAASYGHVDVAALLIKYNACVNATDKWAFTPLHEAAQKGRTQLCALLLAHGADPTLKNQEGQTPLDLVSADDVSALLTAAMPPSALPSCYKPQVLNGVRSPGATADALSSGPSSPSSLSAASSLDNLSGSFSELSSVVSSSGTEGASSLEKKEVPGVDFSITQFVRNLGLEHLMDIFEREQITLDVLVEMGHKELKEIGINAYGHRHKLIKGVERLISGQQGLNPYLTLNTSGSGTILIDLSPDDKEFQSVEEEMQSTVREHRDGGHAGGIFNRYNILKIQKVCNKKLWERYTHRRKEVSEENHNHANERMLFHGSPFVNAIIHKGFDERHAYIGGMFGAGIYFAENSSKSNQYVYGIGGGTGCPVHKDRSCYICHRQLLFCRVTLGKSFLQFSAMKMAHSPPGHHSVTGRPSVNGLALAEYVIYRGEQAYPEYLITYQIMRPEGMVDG
Put plainly: Tankyrase-2 enzyme inhibition test (Tankyrase-2 Chemiluminescent Assay Kit). It counts as biochemical. The note with it: autoribosylation of GST-tankyrase-2 fusion protein, chemiluminescence. The protocol:
Test Example 2: Tankyrase-2 Enzyme Inhibition Test
The enzyme activity of tankyrase-2 was evaluated using Tankyrase-2 Chemiluminescent Assay Kit (BPS Bioscience, Inc., Catalog No. 80566). The Tankyrase-2 Chemiluminescent Assay Kit is a kit for evaluating the enzyme activity of tankyrase-2 using autoribosylation of glutathione-S-transferase (GST)-tankyrase-2 fusion protein as an index. All the experimental materials except for PBS (PBST) buffer containing phosphate-buffered saline (PBS) and 0.05% Tween 20 are all included in the kit. The GST-tankyrase-2 enzyme diluted with 50 μL of 1× tankyrase buffer was added to the wells of a 96-well plate coated with glutathione. After the plate was left to stand overnight at 4° C., the plate was washed 3 times with the PBST buffer. 150 μL of blocking buffer was added thereto, and the plate was left to stand at room temperature for 30 minutes to block the wells. The plate was washed 3 times with the PBST buffer. Before the ribosylation reaction, an assay mixture containing a biotinylated substrate and a test compound diluted with 1× tankyrase buffer were mixed, whereby a reaction mixture was prepared. In order to start the ribosylation reaction, 50 μL of the reaction mixture was added to the wells. In a blank well, 1× tankyrase buffer was added in place of the reaction mixture containing a biotinylated substrate. The plate was left to stand at 30° C. for 1 hour. After the reaction, the plate was washed 3 times with the PBST buffer. Streptavidin-horseradish peroxidase (HRP) was diluted to 50-fold with the blocking buffer. The diluted streptavidin-HRP was added to the wells, and the plate was left to stand at room temperature for 30 minutes. The plate was washed 3 times with the PBST buffer. Immediately before use, 50 μL of the HRP chemiluminescent substrate A and 50 μL of the HRP chemiluminescent substrate B were mixed and 100 μL of the resulting mixture was added to the wells. The chemiluminescence was measured using a chemiluminescence measuring apparatus. The inhibition ratio was obtained according to the following formula 2. [Math. 2] Inhibition ratio (%)=100−{(chemiluminescence intensity when test compound was added)−(chemiluminescence intensity of blank)}/{(chemiluminescence intensity of control)−(chemiluminescence intensity of blank)}×100 Formula 2

The mark [2] stands for this setting: 1 μmol/L, DLD-1/TCF-Luc cells, luciferase activity after 18 hours.

For `N#Cc1cc(N2C(=O)N(CC3CCN(c4ncnc5c4NC(=O)CO5)CC3)Cc3ccccc32)ccn1` [Compound 35, 4-(2-Oxo-3-{[1-(6-oxo-6,7-dihydro-5H-pyrimido[4,5-b][1,4]oxazin-4-yl)piperidin-4-yl]methyl}-3,4-dihydroquinazolin-1(2H)-yl)picolinonitrile], the inhibition at 1 µM in assay [1] (DLD-1, 18 h) is 79%. Further, the “Inhibition ratio (%) at 1 μmol/L” value on tankyrase-2 is 88%. As for `COc1cc2ncnc(N3CCC(CN4Cc5ccccc5N(CC5CCCO5)C4=O)CC3)c2cc1OC` (centres unmarked) [Compound 2, 3-{[1-(6,7-Dimethoxyquinazolin-4-yl)piperidin-4-yl]methyl}-1-[(tetrahydrofuran-2-yl)methyl]-3,4-dihydroquinazolin-2(1H)-one], the inhibition at 1 µM in assay [1] (setting [2]) came out at 87%. Further, the “Inhibition ratio (%) at 1 μmol/L” value at tankyrase-2 is recorded as 91%.

As for `N#Cc1cc(N2C(=O)N(CC3CCN(c4nccn5ccnc45)CC3)Cc3ccccc32)ccn1` [Compound 30, 4-(3-{[1-(Imidazo[1,2-a]pyrazin-8-yl)piperidin-4-yl]methyl}-2-oxo-3,4-dihydroquinazolin-1(2H)-yl)picolinonitrile], the inhibition at 1 µM in assay [1] (DLD-1, 18 h) came to 69%. Besides, the “Inhibition ratio (%) at 1 μmol/L” value on tankyrase-2 stood at 92%. As to `COc1cc2ncnc(N3CC(CN4Cc5ccccc5N(c5ccnc(C#N)c5)C4=O)C3)c2cc1OC` [Compound 17, 4-(3-{[1-(6,7-Dimethoxyquinazolin-4-yl)azetidin-3-yl]methyl}-2-oxo-3,4-dihydroquinazolin-1(2H)-yl)picolinonitrile], the inhibition at 1 µM in assay [1] (setting [2]) was determined as 76%.

As to `N#Cc1cc(N2C(=O)N(CC3CCN(c4ncnc5cnc(C(N)=O)cc45)CC3)Cc3ncccc32)ccc1F` [Compound 46, 4-(4-{[1-(3-Cyano-4-fluorophenyl)-2-oxo-1,2-dihydropyrido[3,2-d]pyrimidin-3(4H)-yl]methyl}piperidin-1-yl)pyrido[3,4-d]pyrimidine-6-carboxamido], the “Inhibition ratio (%) at 1 μmol/L” value in assay [1] (setting [2]) is 84%. As for `CN1CCN(C(=O)c2ccc3c(N4CCC(CN5Cc6ccccc6N(c6ccnc(C#N)c6)C5=O)CC4)ncnc3c2)CC1` [Compound 27, 4-[3-({1-[7-(4-Methylpiperazine-1-carbonyl)quinazolin-4-yl]piperidin-4-yl}methyl)-2-oxo-3,4-dihydroquinazolin-1(2H)-yl]picolinonitrile], the inhibition at 1 µM in assay [1] (DLD-1, 18 h) was 88%. As for `N#Cc1cc(N2C(=O)N(CC3CCN(c4nccc5nc[nH]c(=O)c45)CC3)Cc3cc(F)ccc32)ccn1` [Compound 49, 4-(6-Fluoro-2-oxo-3-{[1-(4-oxo-3,4-dihydropyrido[4,3-d]pyrimidin-5-yl)piperidin-4-yl]methyl}-3,4-dihydroquinazolin-1(2H)-yl)picolinonitrile], the inhibition at 1 µM in assay [1] (setting [2]) amounted to 82%. `N#Cc1cccc(N2C(=O)N(CC3CCN(c4ncnc5c4COCC5)CC3)Cc3ccccc32)c1` [Compound 43, 3-(3-{[1-(7,8-Dihydro-5H-pyrano[4,3-d]pyrimidin-4-yl)piperidin-4-yl]methyl}-2-oxo-3,4-dihydroquinazolin-1(2H)-yl)benzonitrile]: in assay [1] (DLD-1, 18 h), the inhibition at 1 µM was 85%. As to `CNC(=O)c1ccc2c(N3CCC(CN4Cc5ccccc5N(c5cccc(C#N)c5)C4=O)CC3)ncnc2c1` [Compound 26, 4-(4-{[1-(3-Cyanophenyl)-2-oxo-1,2-dihydroquinazolin-3(4H)-yl]methyl}piperidin-1-yl)-N-methylquinazoline-7-carboxamido], the “Inhibition ratio (%) at 1 μmol/L” value in assay [1] (setting [2]) came to 77%. For the compound `N#Cc1ccc2c(c1)CN(CC1CCN(c3nccc4nc[nH]c(=O)c34)CC1)C(=O)N2c1ccnc(C(N)=O)c1` [Compound 51, 4-(6-Cyano-2-oxo-3-{[1-(4-oxo-3,4-dihydropyrido[4,3-d]pyrimidin-5-yl)piperidin-4-yl]methyl}-3,4-dihydroquinazolin-1(2H)-yl)picolinamide], in assay [1] (setting [2]), the inhibition at 1 µM was found to be 90%. Still for that read-out and setting: the figure for `COc1cc2ncnc(N3CCC(CN4Cc5ccccc5N(c5cccc(C#N)c5)C4=O)CC3)c2cc1OC` [Compound 6, 3-(3-{[1-(6,7-Dimethoxyquinazolin-4-yl)piperidin-4-yl]methyl}-2-oxo-3,4-dihydroquinazolin-1(2H)-yl)benzonitrile] is 76%; for `N#Cc1cc(N2C(=O)N(CC3CCN(c4ncnc5cc(C(N)=O)ncc45)CC3)Cc3cnccc32)ccc1F` [Compound 52, 4-(4-{[1-(3-Cyano-4-fluorophenyl)-2-oxo-1,2-dihydropyrido[4,3-d]pyrimidin-3(4H)-yl]methyl}piperidin-1-yl)pyrido[4,3-d]pyrimidine-7-carboxamido] it is 81%; for `COc1cc2ncnc(N3CCC(Cn4c(=O)c5ccccc5n(-c5cccc(C#N)c5)c4=O)CC3)c2cc1OC` [Compound 20, 3-(3-{[1-(6,7-Dimethoxyquinazolin-4-yl)piperidin-4-yl]methyl}-2,4-dioxo-3,4-dihydroquinazolin-1(2H)-yl)benzonitrile] it is 83%. For the compound `COc1cc2ncnc(N3CCC(CN4Cc5ccccc5N(c5ccnc(C(N)=O)c5)C4=O)CC3)c2cc1OC` [Compound 14, 4-(3-{[1-(6,7-Dimethoxyquinazolin-4-yl)piperidin-4-yl]methyl}-2-oxo-3,4-dihydroquinazolin-1(2H)-yl)picolinamide], the inhibition at 1 µM in assay [1] (setting [2]) amounted to 76%.
